Measured values published in US12528802B2, “Heterocyclic compound” (Takeda Pharmaceutical Company Limited, priority 2019, dated 2026).

biological target: T1, glucosylceramide synthase (Homo sapiens, UniProt Q16739); test: Glucosylceramide synthase (GCS) enzyme assay, microsome fraction, C8 glucosylceramide quantified by Rapidfire MS/MS; assay type: biochemical; conditions: test compound 10 μM; 1.7 μM UDP-glucose, 3 μM C8 ceramide; room temperature 60 min
T1 construct: made in house; host or cells: Expi293F cells (transient expression, pcDNA3.3-TOPO vector); microsome fraction used as enzyme source
T1 sequence (Q16739 1-394): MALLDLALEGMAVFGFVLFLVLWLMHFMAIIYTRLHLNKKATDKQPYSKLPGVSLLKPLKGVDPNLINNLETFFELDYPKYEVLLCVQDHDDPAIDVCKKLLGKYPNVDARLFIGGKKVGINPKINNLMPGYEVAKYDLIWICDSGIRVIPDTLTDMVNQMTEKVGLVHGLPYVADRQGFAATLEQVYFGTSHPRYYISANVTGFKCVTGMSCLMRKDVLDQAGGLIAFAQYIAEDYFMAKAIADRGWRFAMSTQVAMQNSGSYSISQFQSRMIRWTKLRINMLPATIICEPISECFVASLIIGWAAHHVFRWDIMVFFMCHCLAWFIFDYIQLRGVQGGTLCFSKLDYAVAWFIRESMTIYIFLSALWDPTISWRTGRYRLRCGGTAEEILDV
Method in brief: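 Test compound, 10 μM final, was run against human GCS from transfected Expi293F microsome fractions, using substrate solution of 6 μM C8 ceramide (in DOPC liposomes) plus 3.4 μM UDP-glucose, pH 7.5 Tris buffer, 60 min, room temperature. Product C8 glucosylceramide measured by Rapidfire MS/MS against an internal standard, % inhibition referenced to no-enzyme and DMSO wells.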

**Q.** How did the “GCS enzyme inhibitory rate at 10 μM (%) (% of control)” value turn out when O=C1c2ccnc(-c3ccc(F)cc3OCC(F)(F)F)c2CN1c1ccc(C2(O)CCOC2)cc1 (single isomer, unassigned) [Example 264, (R or S)-4-[4-fluoro-2-(2,2,2-trifluoroethoxy)phenyl]-2-[4-(3-hydroxyoxolan-3-yl)phenyl]-2,3-dihydro-1H-pyrrolo[3,4-c]pyridin-1-one] was run?
**A.** The value was 98%.

**Q.** O=C1c2ccnc(-c3ccc(F)cc3OCC(F)(F)F)c2CN1c1ccc(C2(O)CCOC2)c(F)c1 (racemic) [Example 238, rac-2-[3-fluoro-4-(3-hydroxyoxolan-3-yl)phenyl]-4-[4-fluoro-2-(2,2,2-trifluoroethoxy)phenyl]-2,3-dihydro-1H-pyrrolo[3,4-c]pyridin-1-one] was tested. Which “GCS enzyme inhibitory rate at 10 μM (%) (% of control)” value did it give?
**A.** The value was 95%.

same assay, conditions: test compound 10 μM; 1.7 μM UDP-glucose, 3 μM C8 ceramide; room temperature 60 min; read-out: GCS enzyme inhibitory rate at 10 μM (%) (% of control)

**Q.** How did the inhibition at 10 µM turn out when CC(C)Cn1cc(N2Cc3c(ccnc3-c3ccc(F)cc3OCC(F)(F)F)C2=O)cn1 [Example 96, 4-[4-fluoro-2-(2,2,2-trifluoroethoxy)phenyl]-2-[1-(2-methylpropyl)-1H-pyrazol-4-yl]-2,3-dihydro-1H-pyrrolo[3,4-c]pyridin-1-one] was run?
**A.** The inhibition at 10 µM was 99%.

**Q.** How did the inhibition at 10 µM turn out when CC(C)(O)COc1cnc(N2Cc3c(ccnc3-c3ccccc3OCC(F)(F)F)C2=O)cn1 [Example 298, 2-[5-(2-hydroxy-2-methylpropoxy)pyrazin-2-yl]-4-[2-(2,2,2-trifluoroethoxy)phenyl]-2,3-dihydro-1H-pyrrolo[3,4-c]pyridin-1-one] was run?
**A.** The inhibition at 10 µM was 98%.

**Q.** For Cc1cc2c(c(-c3ccc(F)cc3OCC(F)(F)F)n1)CN(c1ccc(C3(O)CCOCC3)cc1)C2=O [Example 352, 4-[4-fluoro-2-(2,2,2-trifluoroethoxy)phenyl]-2-[4-(4-hydroxyoxan-4-yl)phenyl]-6-methyl-2,3-dihydro-1H-pyrrolo[3,4-c] pyridin-1-one], which inhibition at 10 µM is on record?
**A.** The inhibition at 10 µM was 100%.

**Q.** For O=C1c2ccnc(-c3ccc(F)cc3OCC(F)(F)F)c2CN1c1ccc(OCC(F)F)nc1 [Example 131, 2-[6-(2,2-difluoroethoxy)pyridin-3-yl]-4-[4-fluoro-2-(2,2,2-trifiuoroethoxy)phenyl]-2,3-dihydro-1H-pyrrolo[3,4-c]pyridin-1-one], which inhibition at 10 µM is on record?
**A.** The inhibition at 10 µM was 87%.

**Q.** With O=C(c1ccc(-c2nccc3c2CN(c2ccc(F)cc2)C3=O)c(OC(F)F)c1)N1CCC1 [Example 78, 4-[4-(azetidine-1-carbonyl)-2-(difluoromethoxy)phenyl]-2-(4-fluorophenyl)-2,3-dihydro-1H-pyrrolo[3,4-c]pyridin-1-one] as the molecule, how does the inhibition at 10 µM read?
**A.** Its inhibition at 10 µM is 79%.

**Q.** O=C(c1ccc(N2Cc3c(ccnc3-c3ccc(F)cc3OCC(F)(F)F)C2=O)cc1)N1CCCC1 [Example 180, 4-[4-fluoro-2-(2,2,2-trifluoroethoxy)phenyl]-2-[4-(pyrrolidine-1-carbonyl)phenyl]-2,3-dihydro-1H-pyrrolo[3,4-c]pyridin-1-one] was tested. Which inhibition at 10 µM did it give?
**A.** Its inhibition at 10 µM is 92%.

**Q.** Which inhibition at 10 µM does the source give for COc1ccc(N2Cc3c(ccnc3-c3ccccc3OC)C2=O)cc1 [Example 24, 4-(2-methoxyphenyl)-2-(4-methoxyphenyl)-2,3-dihydro-1H-pyrrolo[3,4-c]pyridin-1-one] here?
**A.** The inhibition at 10 µM was 89%.

**Q.** Which inhibition at 10 µM does the source give for COCc1cc2c(c(-c3ccccc3OCC(F)(F)F)n1)CN(c1ccc(C(C)(C)O)cc1)C2=O [Example 330, 2-[4-(2-hydroxypropan-2-yl)phenyl]-6-(methoxymethyl)-4-[2-(2,2,2-trifluoroethoxy)phenyl]-2,3-dihydro-1H-pyrrolo[3,4-c]pyridin-1-one] here?
**A.** The inhibition at 10 µM was 100%.

**Q.** Which inhibition at 10 µM does the source give for CC(C)(O)c1ccc(N2Cc3c(ccnc3-c3ccccc3OCC(F)(F)F)C2=O)cn1 [Example 184, 2-[6-(2-hydroxypropan-2-yl)pyridin-3-yl]-4-[2-(2,2,2-trifluoroethoxy)phenyl]-2,3-dihydro-1H-pyrrolo[3,4-c]pyridin-1-one] here?
**A.** Its inhibition at 10 µM is 96%.

**Q.** Which inhibition at 10 µM does the source give for O=C1C2=C(CN1c1ccc(OCC(F)(F)F)cc1)C(c1ccc(F)cc1OCC(F)(F)F)=NCCO2 [Example 209, 5-[4-fluoro-2-(2,2,2-trifluoroethoxy)phenyl]-7-[4-(2,2,2-trifluoroethoxy)phenyl]-2,3,6,7-tetrahydro-8H-pyrrolo[3,4-f][1,4]oxazepin-8-one] here?
**A.** The inhibition at 10 µM was 98%.

**Q.** Which inhibition at 10 µM does the source give for N#Cc1ccc(N2Cc3c(ccnc3-c3ccc(F)cc3OCC(F)(F)F)C2=O)nc1 [Example 71, 6-{4-[4-fluoro-2-(2,2,2-trifluoroethoxy)phenyl]-1-oxo-1,3-dihydro-2H-pyrrolo[3,4-c]pyridin-2-yl}pyridine-3-carbonitrile] here?
**A.** The inhibition at 10 µM was 99%.

**Q.** With COc1cc(F)ccc1-c1nccc2c1CN(c1ccc(F)cc1)C2=O [Example 7, 4-(4-fluoro-2-methoxyphenyl)-2-(4-fluorophenyl)-2,3-dihydro-1H-pyrrolo[3,4-c]pyridin-1-one] as the molecule, how does the inhibition at 10 µM read?
**A.** The inhibition at 10 µM was 70%.

**Q.** For O=C1c2ccnc(-c3ccc(F)cc3OCC(F)(F)F)c2CN1c1ccc(OC(F)F)cn1 [Example 55, 2-[5-(difluoromethoxy)pyridin-2-yl]-4-[4-fluoro-2-(2,2,2-trifluoroethoxy)phenyl]-2,3-dihydro-1H-pyrrolo[3,4-c]pyridin-1-one], which inhibition at 10 µM is on record?
**A.** The inhibition at 10 µM was 98%.

**Q.** Which inhibition at 10 µM does the source give for Cc1nn(-c2ccc(F)cc2OCC(F)(F)F)c2c1C(=O)N(c1ccc(F)cc1)C2 [Example 92, 5-(4-fluorophenyl)-1-[4-fluoro-2-(2,2,2-trifluoroethoxy)phenyl]-3-methyl-5,6-dihydropyrrolo[3,4-c]pyrazol-4(1H)-one] here?
**A.** The inhibition at 10 µM was 57%.

**Q.** CS(=O)(=O)c1ccc(N2Cc3ccnc(-c4ccc(F)cc4OCC(F)(F)F)c3C2)cc1 [Example 140, 4-[4-fluoro-2-(2,2,2-trifluoroethoxy)phenyl]-2-[4-(methanesulfonyl)phenyl]-2,3-dihydro-1H-pyrrolo[3,4-c]pyridine] was tested. Which inhibition at 10 µM did it give?
**A.** Its inhibition at 10 µM is 86%.

**Q.** How did the inhibition at 10 µM turn out when N#CC1(c2ccc(N3Cc4c(ccnc4-c4ccc(F)cc4OCC(F)(F)F)C3=O)cc2)CCOCC1 [Example 218, 4-(4-{4-[4-fluoro-2-(2,2,2-trifluoroethoxy)phenyl]-1-oxo-1,3-dihydro-2H-pyrrolo[3,4-c]pyridin-2-yl}phenyl)oxan-4-carbonitrile] was run?
**A.** The inhibition at 10 µM was 99%.

**Q.** With O=C1c2cnn(-c3ccc(F)cc3OCC(F)(F)F)c2CN1c1ccc(F)cc1 [Example 79, 5-(4-fluorophenyl)-1-[4-fluoro-2-(2,2,2-trifluoroethoxy)phenyl]-5,6-dihydropyrrolo[3,4-c]pyrazol-4(1H)-one] as the molecule, how does the inhibition at 10 µM read?
**A.** Its inhibition at 10 µM is 75%.

**Q.** CC(C)(O)C(F)(F)c1ccc(N2Cc3c(ccnc3-c3ccncc3OCC(F)(F)F)C2=O)cc1 [Example 283, 2-[4-(1,1-difluoro-2-hydroxy-2-methylpropyl)phenyl]-4-[3-(2,2,2-trifluoroethoxy)pyridin-4-yl]-2,3-dihydro-1H-pyrrolo[3,4-c] pyridin-1-one] was tested. Which inhibition at 10 µM did it give?
**A.** Its inhibition at 10 µM is 94%.

**Q.** COc1cc(C(=O)N2CCC2)ccc1-c1nccc2c1CN(c1ccc(OC(F)F)cc1)C2=O [Example 122, 4-[4-(azetidine-1-carbonyl)-2-methoxyphenyl]-2-[4-(difluoromethoxy)phenyl]-2,3-dihydro-1H-pyrrolo[3,4-c]pyridin-1-one] was tested. Which inhibition at 10 µM did it give?
**A.** The inhibition at 10 µM was 95%.

**Q.** Which inhibition at 10 µM does the source give for N#CC1(c2ccc(N3Cc4c(ccnc4-c4ccccc4OCC(F)(F)F)C3=O)cc2)CC1 [Example 271, 1-(4-{1-oxo-4-[2-(2,2,2-trifluoroethoxy)phenyl]-1,3-dihydro-2H-pyrrolo[3,4-c]pyridin-2-yl}phenyl)cyclopropane-1-carbonitrile] here?
**A.** The inhibition at 10 µM was 100%.

**Q.** Which inhibition at 10 µM does the source give for COc1ccccc1-c1nccc2c1CN(c1ccc(F)cc1)C2 [Example 172, 2-(4-fluorophenyl)-4-(2-methoxyphenyl)-2,3-dihydro-1H-pyrrolo[3,4-c]pyridine] here?
**A.** Its inhibition at 10 µM is 91%.

**Q.** How did the inhibition at 10 µM turn out when COC(=O)c1ccc(N2CC3=C(OC(C)CN=C3c3ccccc3OCC(F)(F)F)C2=O)cc1 (racemic) [Example 332, rac-methyl 4-{2-methyl-8-oxo-5-[2-(2,2,2-trifluoroethoxy)phenyl]-2,3,6,8-tetrahydro-7H-pyrrolo [3,4-f][1,4]oxazepin-7-yl}benzoate] was run?
**A.** Its inhibition at 10 µM is 96%.

**Q.** For Cn1cc2c(c(-c3ccccc3OCC(F)(F)F)c1=O)CN(c1ccc(C(C)(C)O)cc1)C2=O [Example 321, 2-[4-(2-hydroxypropan-2-yl)phenyl]-5-methyl-7-[2-(2,2,2-trifluoroethoxy)phenyl]-1H-pyrrolo[3,4-c]pyridine-3,6(2H,5H)-dione], which inhibition at 10 µM is on record?
**A.** Its inhibition at 10 µM is 100%.

**Q.** Cn1nc2c(c1-c1ccccc1OCC(F)(F)F)CN(c1ccc(F)cc1)C2 [Example 206, 5-(4-fluorophenyl)-2-methyl-3-[2-(2,2,2-trifluoroethoxy)phenyl]-2,4,5,6-tetrahydropyrrolo[3,4-c]pyrazole] was tested. Which inhibition at 10 µM did it give?
**A.** The inhibition at 10 µM was 66%.

**Q.** How did the inhibition at 10 µM turn out when Cc1cc2c(c(-c3ccccc3OCC(F)(F)F)n1)CN(c1ccc(C(F)(F)CO)cc1)C2=O [Example 338, 2-[4-(1,1-difluoro-2-hydroxyethyl)phenyl]-6-methyl-4-[2-(2,2,2-trifluoroethoxy)phenyl]-2,3-dihydro-1H-pyrrolo [3,4-c]pyridin-1-one] was run?
**A.** Its inhibition at 10 µM is 100%.

**Q.** CC(C)(O)c1ccc(N2Cc3c(cn(C4CC4)c(=O)c3-c3ccccc3OCC(F)(F)F)C2=O)cc1 [Example 371, 5-cyclopropyl-2-[4-(2-hydroxypropan-2-yl)phenyl]-7-[2-(2,2,2-trifluoroethoxy)phenyl]-1H-pyrrolo[3,4-c]pyridine-3,6(2H,5H)-dione] was tested. Which inhibition at 10 µM did it give?
**A.** The inhibition at 10 µM was 100%.
